Measurements taken from patent US11261230B2, “Synthetic somatostatin receptor ligands” (TEL HASHOMER MEDICAL RESEARCH INFRASTRUCTURE AND SERVICES …, priority 2014, dated 2022).
*1 amine or outer side, *2 acyl side, *3 side chain or, on linkers, in order; H or OH if unused. Where a SMILES comes first, the peptide text is derived from it. Bridges are numbered along the chain shown (N, C = ends). [ ]: non-standard residue; d: D form. The star is where a group is joined. FITC = O=C1OC2(c3ccc(O)cc3Oc3cc(O)ccc32)c2ccc(NC(=S)*)cc21; N(2-mercaptoethyl)Gly = O=C(CN(CCS[*:3])[*:1])[*:2]; GABA = NCCCC(=O)O

Columns and labels:
PANC-1 tumors = assay: In vivo biodistribution in PANC-1 xenograft mice, Maestro fluorescence imaging of harvested tissue; conditions: 1 day after administration, tissues as named in the value
Procedure: Five different pharmaceutical compositions were prepared, each by dissolving 1 mg of a different Somatostatin receptor ligand in 1 liter PBS.
Solid human-derived tumors were induced in 15 nude mice by subcutaneous injection of a suspension containing ˜5□10^5 human cancer cells (PANC-1) into the flank area of the mice.
2-3 weeks after the injection of the cancer cells, it was observed that the mice developed solid tumors with diameters of approximately 5-10 mm.
0.3 ml of each one of the five pharmaceutical compositions were systemically administered to three of the fifteen xenograft mice by injection into the tail vein using a 30 G needle.
The fifteen mice were sacrificed and from the bodies tumors, pancreas, spleen, kidney and liver were harvested.
The fluorescence of the harvested tissue was determined using the Maestro™ in vivo fluorescence imaging system (Cambridge Research & Instrumentation, Inc., Woburn, Mass., USA).

BON1 tumor = assay: In vivo bio-distribution by fluorescence imaging in mice bearing BON1 tumor; set-up: species or system nude mice; conditions: 10 mg/kg IV
Procedure: Pharmacokinetics and bio-distribution of some of the compounds was studied in mouse xenograft models for human cancer. Four pharmaceutical compositions according to the teachings herein, each comprising a single compound according to the teachings herein, were administered intravenously (IV) into lateral tail vein of nude mice bearing BON1 or H116 tumors. Animals were sacrificed at 1, 3, 6 and 24 hours after injection and tumor and normal tissues were excised. Tissue bio-distribution of the compounds were studied using fluorescence imaging techniques.
Experiments were started 7-10 days after the injection, when the tumor diameter was approximately 5-10 mm. […]
Whole-body fluorescence imaging, low-magnification fluorescence microscopy and cellular level fluorescence microscopy methods were used to study tissue biodistribution of the compounds. For these purposes, SZX-12 fluorescence microscope (Olympus, Japan), IX81 inverted fluorescence microscope (Olympus, Japan) equipped with appropriate filter-cubes and digital color camera (DP71, Olympus) were used. Additionally, whole-body fluorescence imaging was performed by WB imaging system (Prizmatix, Israel). Quantitative spectrally-resolved fluorescence imaging was carried out using a spectral imaging (SI) system (SD300, Applied Spectral Imaging, Migdal Ha'Emek, Israel). […]

human SSTR4 = molecular target: T1, human SSTR4 (Homo sapiens, UniProt P31391); assay: Binding to transfected HEK cells expressing a single SSTRx subtype, FACS
T1 construct: expressed in transfected cells; host or cells: HEK-293, transient transfection, pcDNA 3.1
T1 sequence (P31391 whole entry): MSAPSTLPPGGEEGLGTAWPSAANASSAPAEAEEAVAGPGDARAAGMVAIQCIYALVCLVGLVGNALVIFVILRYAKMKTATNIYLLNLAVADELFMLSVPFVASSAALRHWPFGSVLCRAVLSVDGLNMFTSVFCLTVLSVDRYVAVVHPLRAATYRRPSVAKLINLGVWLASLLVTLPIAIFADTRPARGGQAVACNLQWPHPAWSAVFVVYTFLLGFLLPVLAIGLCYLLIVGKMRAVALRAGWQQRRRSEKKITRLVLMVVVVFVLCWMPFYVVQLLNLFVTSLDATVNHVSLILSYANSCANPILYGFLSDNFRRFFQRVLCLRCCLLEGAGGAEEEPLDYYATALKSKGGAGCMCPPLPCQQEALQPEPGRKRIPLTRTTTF
Procedure: (§1) The affinity of compounds 1-16 to each of the five SSTRx was tested using an in vitro model of transfected cell lines (HEK—human embryonic kidney), each expressing a single human SSTRx subtype. Biological activity assessment of the compounds to define a specific affinity to each subtype was performed by FACS and fluorescence imaging methods.
(§2) Human SSTRx were expressed in the cells by transient transfection. Each SSTR was expressed separately, creating five different cell lines using human gene transcript.
(§3) The transfection process is illustrated in FIG. 1. The transient transfection process was carried out before each experiment. Briefly, HEK cells were cultured in standard cell growth conditions. For testing, the cells were transferred into 96-well plates. The tested compounds were dissolved in DMSO and then diluted in a buffer solution to a final DMSO concentration of 5% as a composition according to the teachings herein. Various amounts of the thus-prepared compositions were added to the cells in medium in the 96-well plates and allowed to incubate for between 1 and 24 hours. Binding was determined using fluorescent microscopy and FACS.
(§4) Qualitative assessment of binding efficiency was done by visual inspection and digital photography using an inverted fluorescent microscope. Quantitative assessment was done using FACS.
(§5) HEK-293 cells (human embryonic kidney) were grown in Dulbecco's modified Eagle's medium (DMEM) supplemented with 4 mM glutamine, 10% fetal bovine serum (FBS) and 100 units/ml penicillin/streptomycin at 37° C./5% carbon dioxide. One day prior to transfection, the cells were trypsinized, counted and plated at a density of 3×10^5 per 35 mm diameter dish. Until 70% confluency, cells were transiently transfected with the pcDNA 3.1 vector bearing the coding region for the human SSTR human somatostatin receptor subtypes SSTR1-SSTR5. Transfections were carried out with JetPei transfection reagent (Polyplus-transfection, NY, USA) according to the manufacturer's recommendation. Briefly, 2 micrograms of plasmid DNA and 6 microliter of JetPei transfection reagent were used for each transfection. Each of the components were resuspended in 100 microliter of 150 mM NaCl, mixed and incubated for 25 minutes at room temperature and after incubation added to cells.
(§6) Cells were then seeded in a 96-well flat-bottom microplate (Costar, Corning, N.Y.) at a concentration of 5×10^4 cells/well. Twelve hours later, the supernatant was removed and replaced with fresh DMEM containing various (in the nM range) concentrations of tested compounds 1-16. The cells were incubated for additional time intervals ranging from 0.5-24 hr. At the end of the incubation period, supernatant was discarded and the cells were washed twice with cold PBS. The plates were examined using IX81 inverted microscope (Olympus, Japan) equipped with […] digital camera. Additionally, a FACS assay was used for quantitative analysis.
(§7) Quantitative assessment of binding affinity of Compounds 1-16 was performed by FACS in the transfected HEK cell model.
(§8) Quantitatively, specific binding affinity was assessed as the percentage of double stained [(GR=green and red indicating transfection)/(R is total red) less (G is green indicating unspecific binding)]: specific binding affinity=[GR/R−G]

human SSTR5 = molecular target: T2, human SSTR5 (Homo sapiens, UniProt P35346); assay: Binding to transfected HEK cells expressing a single SSTRx subtype, FACS and fluorescence microscopy
T2 construct: expressed in transfected cells; host or cells: HEK-293, transient transfection, pcDNA 3.1
T2 sequence (P35346 whole entry): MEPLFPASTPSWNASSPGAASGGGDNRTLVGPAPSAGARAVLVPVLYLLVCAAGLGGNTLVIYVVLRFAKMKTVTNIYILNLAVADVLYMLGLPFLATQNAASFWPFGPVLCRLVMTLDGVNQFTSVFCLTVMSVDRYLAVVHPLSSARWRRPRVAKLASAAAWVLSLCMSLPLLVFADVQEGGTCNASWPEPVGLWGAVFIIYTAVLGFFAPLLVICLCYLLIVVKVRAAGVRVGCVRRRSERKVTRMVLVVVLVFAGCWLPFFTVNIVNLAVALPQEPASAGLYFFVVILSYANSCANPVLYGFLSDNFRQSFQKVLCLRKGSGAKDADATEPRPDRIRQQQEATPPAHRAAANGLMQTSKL
Procedure: as §1, §2, §3, §4, §5, §6, §7, §8

SSTR1-SSTR5 = conditions: background statement; cited from earlier work
[1] = FACS, transfected HEK, specific binding affinity = percentage double stained [GR/R−G], 0 = no binding detected
[2] = Table 2 normalized according to the highest binding affinity of that compound
[3] = Table 2 normalized to Compound 1 (=100)

C[C@@H](O)[C@@H]1NC(=O)[C@H](CCCCN)NC(=O)[C@@H](Cc2c[nH]c3ccccc23)NC(=O)[C@H](Cc2c[nH]c3ccccc23)NC(=O)[C@H](Cc2ccccc2)NC(=O)[C@@H](NC(=O)[C@@H](Cc2ccccc2)NC(=O)CCCNC(=S)Nc2ccc3c(c2)C(=O)OC32c3ccc(O)cc3Oc3cc(O)ccc32)CSSCCN(CC(N)=O)C(=O)[C@H](Cc2ccccc2)NC1=O [Compound 1, FITC-GABA-DPhe-Cys*-Phe-Trp-DTrp-Lys-Thr-Phe-GlyS2*-NH2, reference compound]
Intensity in healthy tissue (in words) (PANC-1 tumors): undetectable in liver tissue

C[C@@H](O)[C@@H]1NC(=O)[C@H](CCCCN)NC(=O)[C@@H](Cc2c[nH]c3ccccc23)NC(=O)[C@H](Cc2ccccc2)NC(=O)[C@@H](NC(=O)[C@H](CCCNC(=N)N)NC(=O)[C@@H](Cc2ccccc2)NC(=O)CCCNC(=S)Nc2ccc3c(c2)C(=O)OC32c3ccc(O)cc3Oc3cc(O)ccc32)CSSCCN(CC(N)=O)C(=O)[C@H](Cc2ccccc2)NC1=O [Compound 2, FITC-GABA-D-Phe-Arg-Cys-Phe-D-Trp-Lys-Thr-Phe-GlyS2] ({FITC-GABA}-[dF]RCF[dW]KTF[N(2-mercaptoethyl)Gly]-NH2; disulfide 3-9)
Intensity in healthy tissue (in words) (PANC-1 tumors): undetectable in spleen, kidney and liver tissue

C[C@@H](O)[C@@H]1NC(=O)[C@H](CCCN)NC(=O)[C@@H](Cc2c[nH]c3ccccc23)NC(=O)[C@H](Cc2c[nH]c3ccccc23)NC(=O)[C@H](Cc2ccccc2)NC(=O)[C@@H](NC(=O)[C@@H](Cc2ccccc2)NC(=O)CCCNC(=S)Nc2ccc3c(c2)C(=O)OC32c3ccc(O)cc3Oc3cc(O)ccc32)CSSCCN(CC(N)=O)C(=O)[C@H](Cc2ccccc2)NC1=O [Compound 3, FITC-GABA-D-Phe-Cys-Phe-Trp-D-Trp-Orn-Thr-Phe-GlyS2]
Time of maximal fluorescence signal in all tissues after administration (BON1 tumor; spleen, pancreas and tumor, FIG. 10): 6 h
Intensity in healthy tissue (in words) (PANC-1 tumors): undetectable in spleen, kidney and liver tissue

C[C@@H](O)[C@@H]1NC(=O)[C@H](CCCCN)NC(=O)[C@@H](Cc2c[nH]c3ccccc23)NC(=O)[C@H](Cc2c[nH]c3ccccc23)NC(=O)[C@H](Cc2ccc(O)cc2)NC(=O)[C@@H](NC(=O)[C@@H](Cc2ccccc2)NC(=O)CCCNC(=S)Nc2ccc3c(c2)C(=O)OC32c3ccc(O)cc3Oc3cc(O)ccc32)CSSCCN(CC(N)=O)C(=O)[C@H](Cc2ccccc2)NC1=O [Compound 4, FITC-GABA-D-Phe-Cys-Tyr-Trp-D-Trp-Lys-Thr-Phe-GlyS2] ({FITC-GABA}-[dF]CYW[dW]KTF[N(2-mercaptoethyl)Gly]-NH2; disulfide 2-9)
Pattern of bio-distribution, order of fluorescence in tissue samples (BON1 tumor; fluorescence microscopy, 24 hrs after administration): tumor>spleen>pancreas>kidney>liver

CC(=O)NCCCC[C@@H]1NC(=O)[C@@H](Cc2c[nH]c3ccccc23)NC(=O)[C@H](Cc2c[nH]c3ccccc23)NC(=O)[C@H](Cc2ccccc2)NC(=O)[C@@H](NC(=O)[C@@H](Cc2ccccc2)NC(=O)CCCNC(=S)Nc2ccc3c(c2)C(=O)OC32c3ccc(O)cc3Oc3cc(O)ccc32)CSSCCN(CC(N)=O)C(=O)[C@H](Cc2ccccc2)NC(=O)[C@H]([C@@H](C)O)NC1=O [Compound 14, FITC-GABA-D-Phe-Cys-Phe-Trp-D-Trp-LysAc-Thr-Phe-GlyS2]
Relative binding affinity SSTR4 (human SSTR4; [1]): 3
Adjusted binding affinity SSTR4 (human SSTR4; [2]): 1
Binding affinity to SSTR4 relative to Compound 1 (human SSTR4; [3]): 13
Relative binding affinity SSTR5 (human SSTR5; [1]): 2
Adjusted binding affinity SSTR5 (human SSTR5; [2]): 0.67
Binding affinity to SSTR5 relative to Compound 1 (human SSTR5; [3]): 7

CC(C)[C@@H]1NC(=O)[C@H](CCCCN)NC(=O)[C@@H](Cc2c[nH]c3ccccc23)NC(=O)[C@H](Cc2ccc(O)cc2)NC(=O)[C@@H](NC(=O)[C@H](N)Cc2ccc3ccccc3c2)CSSC[C@@H](C(=O)N[C@H](C(N)=O)[C@@H](C)O)NC1=O [Lanreotide, Napht-Cys*-Tyr-Trp-Lys-Val-Cys*-Thr]
Affinity of binding to the SSTRx (in words) (SSTR1-SSTR5): high-affinity binding to SSTR2, moderate affinity binding to SSTRR3 and SSTR5, and almost no affinity binding to SSTR1 and SSTR4

DPhe-Cys*-Phe-DTrp-Lys-Thr-Cys*-Throl [Octreotide]
Affinity of binding to the SSTRx (in words) (SSTR1-SSTR5): high-affinity binding to SSTR2, moderate affinity binding to SSTRR3 and SSTR5, and almost no affinity binding to SSTR1 and SSTR4
